System: HeLa cells

N#Cc1c(-n2c(Br)c(Br)c3cc(Br)ccc32)[nH]c2c(Br)cc(Br)cc12 [AETX, aetokthonotoxin]
Cytotoxicity EC50 on HeLa cells converted to mass concentration: 0.65 µg/mL
EC50: 1000 nM

Source: publication PMC10556625 (Proceedings of the National Academy of Sciences of the …, 2023)
